Results from patent US9062041B2 (Bayer Intellectual Property GmbH, priority 2011, dated 2015).

Tests used:
Assay type in all cases: cell-based
[1] = biological target: EP2 subtype of the human PGE2 receptor (Homo sapiens, UniProt P43116); test: cAMP antagonism test on the human EP2 receptor (HTRF cAMP detection); conditions: hEP2 receptor, read-out: Antagonism hEP2 IC50
Procedure, shortened: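 Cells expressing human EP2 preincubated 20 min at RT with compound (0.8 nM–16.5 μM), then stimulated 60 min with PGE2 (3× solution 1.5 nM) in PBS-IBMX. After 20 min lysis, cAMP measured by competitive HTRF with cAMP-d2 and Eu cryptate anti-cAMP antibody (665/620 nm ratio).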

[2] = biological target: T1, human PGD receptor (Homo sapiens, UniProt Q13258); test: cAMP antagonism test on the human prostaglandin D receptor (HTRF cAMP detection); conditions: selectivity towards hDP, IC50 measured by cAMP antagonism test
T1 sequence (Q13258 1-359): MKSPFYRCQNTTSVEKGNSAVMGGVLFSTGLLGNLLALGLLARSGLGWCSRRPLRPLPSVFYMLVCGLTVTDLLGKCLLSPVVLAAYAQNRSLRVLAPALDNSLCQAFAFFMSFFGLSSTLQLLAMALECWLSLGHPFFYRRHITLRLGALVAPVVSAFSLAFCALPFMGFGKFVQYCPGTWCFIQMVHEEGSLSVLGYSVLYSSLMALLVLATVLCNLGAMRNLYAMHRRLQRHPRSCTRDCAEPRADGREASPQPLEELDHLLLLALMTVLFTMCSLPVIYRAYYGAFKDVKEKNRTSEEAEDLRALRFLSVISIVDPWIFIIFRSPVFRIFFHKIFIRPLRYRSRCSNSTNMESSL
Procedure, shortened: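 Cells pre-mixed with cAMP-d2 were preincubated with compound (0.8 nM–16.5 μM) for 20 min at RT, then stimulated with 3× PGD2 solution (6 nM, in PBS-IBMX) for 30 min at RT. After lysis (20 min), HTRF read at 665/620 nm; antagonism seen as rise in FRET ratio.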

[3] = biological target: EP4 subtype of the human PGE2 receptor (Homo sapiens, UniProt P35408); test: cAMP antagonism test on the human EP4 receptor (HTRF cAMP detection); conditions: selectivity towards hEP4, IC50 measured by cAMP antagonism test
Sequence of EP4 subtype of the human PGE2 receptor (P35408 whole entry): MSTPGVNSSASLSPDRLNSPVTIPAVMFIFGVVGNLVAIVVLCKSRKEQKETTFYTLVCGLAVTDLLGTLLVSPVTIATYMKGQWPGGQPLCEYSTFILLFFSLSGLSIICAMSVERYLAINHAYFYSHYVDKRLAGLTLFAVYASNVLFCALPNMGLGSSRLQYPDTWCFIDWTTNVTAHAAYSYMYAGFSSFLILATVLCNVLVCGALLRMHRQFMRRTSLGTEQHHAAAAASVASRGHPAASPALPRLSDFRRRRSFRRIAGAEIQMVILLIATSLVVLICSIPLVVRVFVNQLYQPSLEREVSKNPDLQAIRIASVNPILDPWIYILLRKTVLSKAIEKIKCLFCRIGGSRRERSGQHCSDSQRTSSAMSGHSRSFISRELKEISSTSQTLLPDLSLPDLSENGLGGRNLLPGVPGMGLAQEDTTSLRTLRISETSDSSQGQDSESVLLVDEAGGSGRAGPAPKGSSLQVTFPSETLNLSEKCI
Procedure, shortened: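 Cells expressing human EP4 preincubated 20 min at RT with compound (0.8 nM–16.5 μM), then stimulated with PGE2 (0.3 nM in 3× solution, with IBMX) 60 min at RT. After lysis, cAMP measured by HTRF competition (665/620 nm ratio); antagonism seen as rise in FRET signal.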

Sequence of EP2 subtype of the human PGE2 receptor (P43116 whole entry): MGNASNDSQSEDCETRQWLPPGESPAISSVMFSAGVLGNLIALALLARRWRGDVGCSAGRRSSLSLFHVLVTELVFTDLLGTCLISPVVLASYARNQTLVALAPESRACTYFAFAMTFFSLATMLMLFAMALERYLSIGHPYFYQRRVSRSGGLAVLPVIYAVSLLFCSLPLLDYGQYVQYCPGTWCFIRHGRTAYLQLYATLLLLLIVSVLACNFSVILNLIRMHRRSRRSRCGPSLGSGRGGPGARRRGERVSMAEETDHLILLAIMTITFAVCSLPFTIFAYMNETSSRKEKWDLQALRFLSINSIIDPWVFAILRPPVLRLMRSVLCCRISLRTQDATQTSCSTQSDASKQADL

Row | SMILES | IC50 [1] [nM] | Selectivity hEP2/hDP [2] | Selectivity hEP2/hEP4 [3]
1 | COCCNC(=O)c1ccc2nn(CC3CCN(C(=O)c4ccc5cc(OC)ccc5c4)CC3)cc2c1C [Example 336, N-(2-methoxyethyl)-2-{[1-(6-methoxy-2-naphthoyl)piperidin-4-yl]methyl}-4-methyl-2H-indazol-5-carboxamide] | 5.59 | xxx (xxx > 100) | xxx (xxx > 100)
2 | O=C(NCCOCC1CC1)c1ccc2nn(CC3CCN(C(=O)c4ccc(Cl)cc4)CC3)cc2c1OC(F)F [Example 229, 2-{[1-(4-chlorobenzoyl)piperidin-4-yl]methyl}-N-[2-(cyclopropylmethoxy)-ethyl]-4-(difluoromethoxy)-2H-indazol-5-carboxamide] | 10.2 | xxx (xxx > 100) | xxx (xxx > 100)
3 | COCCNC(=O)c1ccc2nn(CC3CCN(C(=O)c4cccc(C(F)(F)F)c4)CC3)cc2c1C [Example 26, N-(2-methoxyethyl)-4-methyl-2-({1-[3-(trifluoromethyl)-benzoyl]piperidin-4-yl}methyl)-2H-indazol-5-carboxamide] | 24.2 | xxx (xxx > 100) | xxx (xxx > 100)
4 | COCCNC(=O)c1ccc2nn(C[C@H]3CCN(C(=O)c4ccc(Oc5ccc(C(F)(F)F)cc5)cc4)C3)cc2c1C [Example 224, N-(2-methoxyethyl)-4-methyl-2-{[(S)-1-{4-[4-(trifluoromethyl)phenoxy]benzoyl}pyrrolidin-3-yl]methyl}-2H-indazol-5-carboxamide] | 5.62 | xxx (xxx > 100) | xxx (xxx > 100)
5 | COCCNC(=O)c1ccc2nn(CC3CCN(C(=O)c4ccc(Oc5ccc(C(N)=O)cc5)cc4)CC3)cc2c1C [Example 30, 2-({1-[4-(4-carbamoylphenoxy)-benzoyl]piperidin-4-yl}methyl)-N-(2-methoxyethyl)-4-methyl-2H-indazol-5-carboxamide] | 64.3 | xxx (xxx > 100) | xxx (xxx > 100)
6 | Cc1c(C(=O)NCCOCC2CC2)ccc2nn(CC3CN(C(=O)c4ccc(Oc5ccc(F)cc5)cc4)C3)cc12 [Example 150, N-[2-(cyclopropylmethoxy)ethyl]-2-({1-[4-(4-fluorophenoxy)benzoyl]azetidin-3-yl}methyl)-4-methyl-2H-indazol-5-carboxamide] | 12.8 | xxx (xxx > 100) | xxx (xxx > 100)
7 | Cc1c(C(=O)NCCOC(F)(F)F)ccc2nn(CC3CCN(C(=O)c4ccc(Oc5ccc(C(F)(F)F)cc5)cc4)CC3)cc12 [Example 110, 4-methyl-N-[2-(trifluoromethoxy)ethyl]-2-[(1-{4-[4-(trifluoro-methyl)phenoxy]-benzoyl}piperidin-4-yl)-methyl]-2H-indazol-5-carboxamide] | 4.4 | xxx (xxx > 100) | xxx (xxx > 100)
8 | COc1c(C(=O)NCCN2CCOCC2)ccc2nn(CC3CCN(C(=O)c4ccc(Cl)cc4)CC3)cc12 [Example 261, 2-{[1-(4-chlorobenzoyl)piperidin-4-yl]methyl}-4-methoxy-N-(2-morpholinoethyl)-2H-indazol-5-carboxamide] | 81 | xxx (xxx > 100) | xxx (xxx > 100)
9 | COCCNC(=O)c1ccc2nn(CC3CCN(C(=O)c4ccc(OC)cc4)CC3)cc2c1C [Example 21, 2-{[1-(4-methoxy-benzoyl)piperidin-4-yl]methyl}-N-(2-methoxyethyl)-4-methyl-2H-indazol-5-carboxamide] | 35.8 | xxx (xxx > 100) | xxx (xxx > 100)
10 | Cc1ccc(-c2ccc(C(=O)N3CCC(Cn4cc5c(C)c(C(=O)NCC(F)(F)F)ccc5n4)CC3)cc2)nc1 [Example 324, 4-methyl-2-({1-[4-(5-methylpyridin-2-yl)benzoyl]piperidin-4-yl}methyl)-N-(2,2,2-trifluoroethyl)-2H-indazol-5-carboxamide] | 460 | xx (xx: 10-100) | xx (xx: 10-100)
